Laboratory results: patent US20120064056A1, “DICHLORACETATE IN COMBINATION WITH CLINICALLY HIGH LEVELS OF CARDIOPROTECTIVE OR HEMODYNAMIC DRUGS” (THE GOVERNORS OF THE UNIVERSITY OF ALBERTA TEC Edmonton, priority 2002, published 2012)

Experiments:
[1] = test system: isolated rat hearts subjected to low flow demand ischemia; test: Isolated working rat heart, low flow demand ischemia: glycolysis and glucose oxidation; conditions: FIG. 22, FIG. 28
isolated rat hearts [2] = test: Isolated working rat heart, aerobic perfusion: cardiac function and efficiency; parameters: Cardiac Work (CO · PSP): unit not given beside the values; conditions: aerobically perfused, DCA 2 mM, diltiazem 0.8 μM, digoxin 3 nM, metoprolol 1 μM, dobutamine 1 μM
Procedure: (§1) Rat hearts were cannulated for isolated working heart perfusions as described in “An imbalance between glycolysis and glucose oxidation is a possible explanation for the detrimental effects of high levels of fatty acids during aerobic reperfusion of ischemic hearts.”, (J Pharmacol Exp Ther. 264:135 (1993); herein incorporated by reference. In brief, male Sprague-Dawley rats (0.3-0.35 kg) were anesthetized with pentobarbital sodium (60 mg/kg IP) and hearts were quickly excised, the aorta was cannulated and a retrograde perfusion at 37° C. was initiated at a hydrostatic pressure of 60 mm Hg. Hearts were trimmed of excess tissue, and the pulmonary artery and the opening to the left atrium were then cannulated. After 15 min of Langendorff perfusion, hearts were switched to the working mode by clamping the aortic inflow line from the Langendorff reservoir and opening the left atrial inflow line. The perfusate was delivered from an oxygenator into the left atrium at a constant preload pressure of 11 mm Hg. Perfusate was ejected from spontaneously beating hearts into a compliance chamber (containing 1 ml of air) and into the aortic outflow line. The afterload was set at a hydrostatic pressure of 80 mm Hg. All working hearts were perfused with Krebs'-Henseleit solution containing calcium 2.5 mmol/L, glucose 5.5 mmol/L, 3% bovine serum albumin (Fraction V, Boehringer Mannheim), and with 1.2 mmol/L palmitate. Palmitate was bound to the albumin as described previously (Saddik M., et al. J Biol. Chem. 267:3825-3831 (1992)). The perfusate was recirculated, and pH was adjusted to 7.4 by bubbling with a mixture containing 95% O2 and 5% CO2. For the aerobic model hearts, all tested compounds were introduced into the heart 5 minutes into the working mode following Langendorff Perfusion.
Spontaneously beating hearts were used in all perfusions. Heart rate and aortic pressure were measured with a Biopac Systems Inc. blood pressure transducer connected to the aortic outflow line. Cardiac output and aortic flow were measured with Transonic T206 ultrasonic flow probes in the preload and afterload lines, respectively. Coronary flow was calculated as the difference between cardiac output and aortic flow. The O2 contents of the perfusate entering and leaving the heart were measured using YSI™ micro oxygen electrodes placed in the preload and pulmonary arterial lines, respectively. Myocardial O2 consumption (MVO2) was calculated according to the Fick principle, using coronary flow rates and the arteriovenous difference in perfusate O2 concentration. Cardiac work was calculated as the product of systolic pressure and cardiac output. Cardiac efficiency was defined as a ratio of cardiac work to MVO2.

isolated rat hearts [3] = test: Isolated working rat heart, aerobic perfusion: glycolysis and glucose oxidation; parameters: glycolytic rates (glycolysis) / glucose oxidation rates: unit not given here; conditions: normal hearts, aerobic; FIG. 2, 4, 6, 8; control 3.430±0.604; DCA 2 mM, digoxin 3 nM, diltiazem 0.8 μM, dobutamine 1 μM, metoprolol 1 μM
Procedure: as §1
Glycolysis and glucose oxidation were measured simultaneously by perfusing hearts with [5-^3H/U-^14C] glucose (Liu H., et al. Am J Physiol. 270:H72-H80 (1996); Taegtmeyer Het al. Am J Cardiol. 80:3A-10A (1997)). The total myocardial ^3H2O production and ^14CO2 production were determined at 10 minute intervals for the entirety of the aerobic period, 60 minutes for normal hearts and 30 minutes for the global ischemia and low flow demand ischemia models. In the global ischemia model, the total myocardial ^3H2O and ^14CO2 production were determined at 20 minute intervals for the 60 minute reperfusion period. In the low flow demand ischemia model, the total myocardial ^3H2O and ^14CO2 production were determined at 10 minute intervals for the 30 minute reperfusion period. Glucose oxidation rates were determined by quantitative measurement of ^14CO2 production as described previously (Barbour R. L., et al. Biochemistr. 1923:6503-6062 (1984)).

[4] = test system: isolated rat hearts subjected to low flow demand ischemia; test: Isolated working rat heart, low flow demand ischemia: cardiac function and efficiency; conditions: for Aortic Outflow / Cardiac Output / Coronary Flow / HR × PSP / Heart Rate / Peak Systolic Pressure: DCA 2 mM, diltiazem 0.8 μM, metoprolol 1 μM
Procedure: Hearts were trimmed of excess tissue, and the pulmonary artery and the opening to the left atrium were then cannulated. After 15 min of Langendorff perfusion, hearts were switched to the working mode by clamping the aortic inflow line from the Langendorff reservoir and opening the left atrial inflow line. The perfusate was delivered from an oxygenator into the left atrium at a constant preload pressure of 11 mm Hg. […] The afterload was set at a hydrostatic pressure of 80 mm Hg. […] Palmitate was bound to the albumin as described previously ([…]., et al. J Biol. Chem. 267:3825-3831 (1992)). […] For the aerobic model hearts, all tested compounds were introduced into the heart 5 minutes into the working mode following Langendorff Perfusion. Spontaneously beating hearts were used in all perfusions. Heart rate and aortic pressure were measured with a Biopac Systems Inc. blood pressure transducer connected to the aortic outflow line. Cardiac output and aortic flow were measured with Transonic […] ultrasonic flow probes in the preload and afterload lines, respectively. Coronary flow was calculated as the difference between cardiac output and aortic flow. […] Cardiac work was calculated as the product of systolic pressure and cardiac output. Cardiac efficiency was defined as a ratio of cardiac work to MVO2. […] All tested compounds were introduced into the perfusate five minutes into initiation of aerobic perfusion.

[5] = low flow ischemia: aerobic period
[6] = low flow ischemia: ischemic period

## COc1ccc([C@@H]2Sc3ccccc3N(CCN(C)C)C(=O)[C@@H]2OC(C)=O)cc1 [Diltiazem, diltiazem]
[1]
  glycolysis, in words: some attenuation
Isolated rat hearts [2]
  Aortic Outflow: 21 ± 1 mL/min
  Cardiac Efficiency (CW · O2^−1): 1.63 ± 0.37
  Cardiac Output: 41 ± 1 mL/min
  Cardiac Work (CO · PSP): 51 ± 1
  Coronary Flow: 20 ± 1 mL/min
  HR × PSP: 25 ± 1 beats · min^−1 · mmHg · 10^−2
  Heart Rate: 202 ± 3 beats · min^−1
  O2 Consumption: 38 ± 9 μmolO2 · g dry wt^−1 · min^−1
  Peak Systolic Pressure: 127 ± 4 mmHg
Isolated rat hearts [2]; listed as diltiazem
  Aortic Outflow: 21 ± 1 mL/min
  Cardiac Work (CO · PSP): 51±1
  HR × PSP: 25±1 beats · min^−1 · mmHg · 10^−2
  Heart Rate: 202±3 beats · min^−1
Isolated rat hearts [3]
  glycolytic rates (glycolysis): 0.727±0.160
[4]; low flow demand ischemia, Table 1
  peak systolic pressure, effect in words: decreased
[4]; [5]
  Aortic Outflow: 22 ± 1 mL/min
  Cardiac Output: 43 ± 1 mL/min
  Coronary Flow: 21 ± 1 mL/min
  HR × PSP: 28 ± 1 beats · min^−1 · mmHg · 10^−2
  Heart Rate: 215 ± 6 beats · min^−1
  Peak Systolic Pressure: 131 ± 6 mmHg
[4]; [6]
  Aortic Outflow: 11 ± 4 mL/min
  Cardiac Output: 24 ± 4 mL/min
  Coronary Flow: 13 ± 1 mL/min
  HR × PSP: 28 ± 1 beats · min^−1 · mmHg · 10^−2
  Heart Rate: 215 ± 6 beats · min^−1
  Peak Systolic Pressure: 131 ± 6 mmHg
[4]; low-flow ischemic period, FIG. 23, FIG. 29
  cardiac function, in words: Neither diltiazem, DCA, nor DCA with diltiazem significantly affected
